Reference: US10433548B2, “Biocidal compositions comprising iron chelators” (Arch Chemicals, Inc., priority 2012, dated 2019)
In brackets after ≈: the same amount, converted by molar mass. Where two headings read alike, the source gives them in different places.

Columns and labels:
Experiment in all cases: Minimum Inhibitory Concentration (MIC) test, 96-well microtiter plate
Format in all cases: cell-based
[1] = system: C. pyrenoidosa; design: unit not given here
[2] = system: R. subcapitata; design: unit not given here
[3] = system: A. brasiliensis; design: unit not given here
Experimental: (§1) Activities of antimicrobial compositions of the present invention were tested against a range of typical skin microorganisms in a Minimum Inhibitory Concentration (MIC) test. MICs for the organisms were determined in a standard 96-well microtiter plate assay in Brain Heart Infusion Broth (BHI) for P. acnes; Tryptic Soy Broth (TSB) for the remaining bacteria; Ushijima Broth for M. furfur; Sabouraud Dextrose Broth (SDB) for other fungi. Samples were tested in duplicate on separate plates. For bacteria and fungi plates, samples were serially diluted into double strength media on the microtiter plates. The bacterial or fungal inocula, suspended in sterile deionized water, were then added to the wells in 1:1 ratio to the medium. The final concentration of bacteria in the wells was 5×10^5 CFUs/mL, the final concentration of fungi was 5×10^4 cells or spores/mL. Plates were incubated: anaerobically at 35° C. for 7 days for P. acnes; aerobically at 35° C. for 2 days for the remaining bacteria and aerobically at 35° C. for 7 days for M. furfur; aerobically at 28° C. for 7 days for T. mentagrophytes.

[4] = system: A. pullulans; design: unit not given here
Experimental: as §1

[5] = system: B. subtilis; design: unit not given here
Experimental: as §1

[6] = system: P. aeruginosa; design: unit not given here
Experimental: as §1

[7] = system: P. faveolarum; design: unit not given here
Experimental: as §1

[8] = system: P. acnes; settings: for MIC: Cutibacterium acnes
Experimental: as §1

[9] = system: C. albicans; design: unit not given here
Experimental: as §1

[10] = system: E. hirae; design: unit not given here
Experimental: as §1

[11] = system: S. aureus; design: unit not given here
Experimental: as §1

[12] = system: M. furfur; design: unit not given here
Experimental: as §1

[13] = system: S. epidermidis; design: unit not given here
Experimental: as §1

[14] = system: T. mentagrophytes; design: unit not given here
Experimental: as §1

[15] = system: E. coli; settings: Active ZPT alone or plus chelator or chelator + Zn(II); Molar Ratio HBED 10×, 8-HQ 5×, 8-HQ + Zn(II) 1×, 2-HPNO 10×
Experimental: as §1

[16] = concentration of BBIT, BBIT alone or with potentiator, Molar Eq (Pot:BBIT) 10:1
[17] = concentration of BIT, BIT alone or with potentiator, Molar Eq (Pot:BIT) 10:1
[18] = concentration of Propiconazole, alone or with potentiator, Molar Eq (Pot:PROP) 10:1
[19] = concentration of IPBC, IPBC alone or with potentiator, Molar Eq (Pot:IPBC) 10:1
[20] = concentration of ZPT, ZPT alone or with potentiator, Molar Eq (Pot:ZPT) 10:1, 8-HQ-Zn 1:1
[21] = Active ZPT alone or plus chelator or chelator + Zn(II), Molar Ratio HBED 10×, 8-HQ 5×, 8-HQ + Zn(II) 1×, 2-HPNO 10×

O=C(O)CN(CCN(CC(=O)O)CC(=O)O)CCN(CC(=O)O)CC(=O)O [DTPA, diethylenetriaminepentaacetic acid]
MIC C. pyrenoidsa [1, 16]: 1.25 | MIC C. pyrenoidsa [1, 17]: 0.51 | MIC R. subcapitata [2, 16]: 0.94 | MIC R. subcapitata [2, 17]: 0.51 | MIC A. brasiliensis [3, 16]: 1.25 | MIC A. brasiliensis [3, 17]: 16.25 | MIC A. pullulans [4, 16]: 0.63 | MIC A. pullulans [4, 17]: 2.03 | MIC B. subtilis [5, 16]: 2.50 | MIC B. subtilis [5, 17]: 2.03 | MIC P. aeruginosa [6, 16]: 20.00 | MIC P. aeruginosa [6, 17]: 8.13 | MIC P. faveolarum [7, 16]: 0.16 | MIC P. faveolarum [7, 17]: <0.06 | MIC values against P. acnes, Benzoyl Peroxide ([8]; Benzoyl Peroxide without chelator or with chelator, Molar Eq. HBED 10×, 8-HQ 5×, DTPA 10×, Desferrioxamine 1×): 6.25 ppm | MIC values against P. acnes, Salicylic Acid ([8]; Salicylic Acid without chelator or with chelator, Molar Eq. HBED 10×, 8-HQ 5×, DTPA 10×, Desferrioxamine 1×): 3.13 ppm

glucoheptanoic acid zinc salt [Gluco-heptanoate-Zn]
MIC C. pyrenoidsa [1, 16]: 1.25 | MIC C. pyrenoidsa [1, 18]: 15.47 | MIC R. subcapitata [2, 16]: 1.88 | MIC R. subcapitata [2, 18]: 0.97 | MIC A. brasiliensis [3, 16]: 2.50 | MIC A. pullulans [4, 16]: 5.00 | MIC B. subtilis [5, 16]: 1.25 | MIC B. subtilis [5, 18]: 20.63 | MIC C. albicans [9, 18]: 82.50 | MIC E. hirae [10, 18]: 20.63 | MIC P. aeruginosa [6, 16]: 80.00 | MIC P. aeruginosa [6, 18]: 165.00 | MIC P. faveolarum [7, 16]: 0.16 | MIC P. faveolarum [7, 18]: 1.93 | MIC S. aureus [11, 18]: 41.25

CC(=O)N(O)CCCCCNC(=O)CCC(=O)N(O)CCCCCNC(=O)CCC(=O)N(O)CCCCCN [Desferrioxamine, desferrioxamine]
MIC ([8]; read-out: MIC values against P. acnes, Benzoyl Peroxide): 25 µg/mL (≈ 44.6 µM) | MIC ([8]; read-out: MIC values against P. acnes, Salicylic Acid): 25 µg/mL (≈ 44.6 µM)

O=c1cccccc1[O-].O=c1cccccc1[O-].[Zn+2] [Tropolone-Zn, zinc(tropolone)2]
MIC C. pyrenoidsa [1, 16]: 1.25 | MIC C. pyrenoidsa [1, 17]: 0.76 | MIC C. pyrenoidsa [1, 19]: 0.51 | MIC C. pyrenoidsa [1, 18]: 2.58 | MIC C. pyrenoidsa [1, 20]: 0.98 | MIC R. subcapitata [2, 16]: 0.94 | MIC R. subcapitata [2, 17]: 1.02 | MIC R. subcapitata [2, 19]: 0.51 | MIC R. subcapitata [2, 18]: 1.29 | MIC R. subcapitata [2, 20]: 0.49 | MIC A. brasiliensis [3, 16]: 0.94 | MIC A. brasiliensis [3, 17]: 1.02 | MIC A. brasiliensis [3, 20]: 1.95 | MIC A. pullulans [4, 16]: 0.31 | MIC A. pullulans [4, 17]: 0.24 | MIC B. subtilis [5, 16]: 0.31 | MIC B. subtilis [5, 17]: 0.13 | MIC B. subtilis [5, 19]: 0.51 | MIC B. subtilis [5, 18]: 0.64 | MIC B. subtilis [5, 20]: 0.24 | MIC C. albicans [9, 19]: 1.02 | MIC C. albicans [9, 18]: 0.97 | MIC C. albicans [9, 20]: 0.73 | MIC E. hirae [10, 19]: 0.25 | MIC E. hirae [10, 18]: 0.32 | MIC M. furfur [12, 20]: 0.73 | MIC P. aeruginosa [6, 16]: 20.00 | MIC P. aeruginosa [6, 17]: 8.13 | MIC P. aeruginosa [6, 19]: 32.5 | MIC P. aeruginosa [6, 18]: 41.25 | MIC P. aeruginosa [6, 20]: 15.63 | MIC P. faveolarum [7, 16]: 0.23 | MIC P. faveolarum [7, 17]: 0.19 | MIC P. faveolarum [7, 19]: 0.38 | MIC P. faveolarum [7, 18]: 0.32 | MIC P. faveolarum [7, 20]: 0.05 | MIC S. aureus [11, 19]: 0.51 | MIC S. aureus [11, 18]: 0.64 | MIC S. epidermidis [13, 20]: 0.18 | MIC T. mentagrophytes [14, 20]: 0.18

O=C(O)CN(CCN(CC(=O)O)Cc1ccccc1O)Cc1ccccc1O.[Zn] [HBED-Zn]
MIC C. pyrenoidsa [1, 20]: 0.98 | MIC R. subcapitata [2, 20]: 0.49 | MIC A. brasiliensis [3, 20]: 7.81 | MIC B. subtilis [5, 20]: 1.95 | MIC C. albicans [9, 20]: 3.91 | MIC M. furfur [12, 21]: 0.98 | MIC M. furfur [12, 20]: 0.98 | MIC P. aeruginosa [6, 21]: 15.63 | MIC P. aeruginosa [6, 20]: 15.63 | MIC P. faveolarum [7, 20]: 0.24 | MIC S. epidermidis [13, 21]: 3.91 | MIC S. epidermidis [13, 20]: 3.91 | MIC T. mentagrophytes [14, 21]: 1.46 | MIC T. mentagrophytes [14, 20]: 1.46 | MIC E. Coli [15]: 3.91

CCCCn1sc2ccccc2c1=O [BBIT, butylbenzisothiazolinone]
MIC C. pyrenoidsa [1, 16]: 1.25-2.5 | MIC R. subcapitata [2, 16]: 1.25-15 | MIC A. brasiliensis [3, 16]: 1.25-5 | MIC A. pullulans [4, 16]: 2.5-5 | MIC B. subtilis [5, 16]: 1.88-2.5 | MIC P. aeruginosa [6, 16]: 80.00 | MIC P. faveolarum [7, 16]: 1.25-5

CCCC1COC(Cn2cncn2)(c2ccc(Cl)cc2Cl)O1 (stereo not shown) [Propiconazole, propiconazole]
MIC C. pyrenoidsa [1, 18]: 20.63-82.5 | MIC R. subcapitata [2, 18]: 20.63-41.25 | MIC C. albicans [9, 18]: 41.25-100.00 | MIC E. hirae [10, 18]: 165.00 | MIC P. aeruginosa [6, 18]: 165.00 | MIC P. faveolarum [7, 18]: 20.63-41.25 | MIC S. aureus [11, 18]: 82.5-165.00

Oc1cccc2cccnc12.[Zn] [8-HQ-Zn, 8-hydroxyquinoline zinc salt]
MIC C. pyrenoidsa [1, 20]: 0.73 | MIC R. subcapitata [2, 20]: 1.95 | MIC A. brasiliensis [3, 20]: 15.63 | MIC B. subtilis [5, 20]: 0.98 | MIC C. albicans [9, 20]: 7.81 | MIC M. furfur [12, 21]: 1.95 | MIC M. furfur [12, 20]: 1.95 | MIC P. aeruginosa [6, 21]: 31.5 | MIC P. aeruginosa [6, 20]: 31.25 | MIC P. faveolarum [7, 20]: 0.24 | MIC S. epidermidis [13, 21]: 1.95 | MIC S. epidermidis [13, 20]: 1.95 | MIC T. mentagrophytes [14, 21]: 3.91 | MIC T. mentagrophytes [14, 20]: 3.91 | MIC E. Coli [15]: 7.81

O=C(OOC(=O)c1ccccc1)c1ccccc1 [Benzoyl Peroxide, benzoyl peroxide]
MIC ([8]; Benzoyl Peroxide without chelator or with chelator, Molar Eq. HBED 10×, 8-HQ 5×, DTPA 10×, Desferrioxamine 1×, read-out: MIC values against P. acnes, Benzoyl Peroxide): 200 µg/mL (≈ 826 µM)

O=c1[nH]sc2ccccc12 [BIT, benzisothiazolinone]
MIC C. pyrenoidsa [1, 17]: 4.06-8 | MIC R. subcapitata [2, 17]: 8.13 | MIC A. brasiliensis [3, 17]: 16-32.5 | MIC A. pullulans [4, 17]: 4.06-8 | MIC B. subtilis [5, 17]: 1.02-4 | MIC P. aeruginosa [6, 17]: 32.50 | MIC P. faveolarum [7, 17]: 4.06-16

O=C(CC(=O)C(F)(F)F)c1cccs1.[Zn] [Then-Zn, thenoyl trifluoro acetone zinc salt]
MIC C. pyrenoidsa [1, 17]: 2.03 | MIC C. pyrenoidsa [1, 19]: 0.38 | MIC R. subcapitata [2, 17]: 1.02 | MIC R. subcapitata [2, 19]: 1.02 | MIC A. brasiliensis [3, 17]: 32.50 | MIC A. pullulans [4, 17]: 4.06 | MIC B. subtilis [5, 17]: 1.52 | MIC B. subtilis [5, 19]: 4.06 | MIC C. albicans [9, 19]: 2.03 | MIC E. hirae [10, 19]: 8.13 | MIC P. aeruginosa [6, 17]: 32.50 | MIC P. aeruginosa [6, 19]: 65.0 | MIC P. faveolarum [7, 17]: 0.13 | MIC P. faveolarum [7, 19]: 0.51 | MIC S. aureus [11, 19]: 13.25

O=C(O)c1ccccc1O [Salicylic Acid, salicylic acid]
MIC ([8]; Salicylic Acid without chelator or with chelator, Molar Eq. HBED 10×, 8-HQ 5×, DTPA 10×, Desferrioxamine 1×, read-out: MIC values against P. acnes, Salicylic Acid): 100 µg/mL (≈ 724 µM)

zinc dihydroxyacetate [DHA-Zn]
MIC C. pyrenoidsa [1, 17]: 2.03 | MIC C. pyrenoidsa [1, 18]: 10.31 | MIC C. pyrenoidsa [1, 20]: 0.98 | MIC R. subcapitata [2, 17]: 2.03 | MIC R. subcapitata [2, 18]: 1.29 | MIC R. subcapitata [2, 20]: 0.98 | MIC A. brasiliensis [3, 17]: 6.09 | MIC A. brasiliensis [3, 20]: 7.81 | MIC A. pullulans [4, 17]: 2.03 | MIC B. subtilis [5, 17]: 1.52 | MIC B. subtilis [5, 18]: 30.94 | MIC B. subtilis [5, 20]: 0.98 | MIC C. albicans [9, 18]: 0.64 | MIC C. albicans [9, 20]: 3.91 | MIC E. hirae [10, 18]: 20.63 | MIC M. furfur [12, 20]: 1.95 | MIC P. aeruginosa [6, 17]: 32.50 | MIC P. aeruginosa [6, 18]: 165.00 | MIC P. aeruginosa [6, 20]: 31.25 | MIC P. faveolarum [7, 17]: 0.25 | MIC P. faveolarum [7, 18]: 1.93 | MIC P. faveolarum [7, 20]: 0.05 | MIC S. aureus [11, 18]: 41.25 | MIC S. epidermidis [13, 20]: 3.91 | MIC T. mentagrophytes [14, 20]: 0.49
